From patent publication US11548903B2, “Bicyclic thiazine and oxazine derivatives as beta-secretase inhibitors and methods of use” (AMGEN INC., priority 2016, dated 2023)
Like-named read-outs stand apart in the source and are kept apart here.

How the values were obtained:
[1] = target: human recombinant BACE1 (Homo sapiens (Human), UniProt P56817); assay: In vitro enzymatic BACE1 FRET assay; format: biochemical; details: read-out: BACE1 Enzyme IC50
Experimental: (§1) In Vitro Enzymatic BACE1 and BACE2 FRET (Fluorescence Resonance Energy Transfer) Assays […] These recombinant proteins were further purified using Ni-NTA affinity chromatography (Qiagen). […] The assay was effectively started by the addition of FRET substrate (50 nM) and the combination was incubated for one hour. The FRET assay was terminated by the addition of tris buffer, which raised the pH to neutrality, and the fluorescence was determined. The FRET substrate was a peptide with commercially available fluorophore and quencher, on opposite sides of the BACE cleavage site. The specific FRET substrate used in this assay was made by Amgen in-house. Commercially available FRET substrates, for example, the FRET substrate offered with the BACE1 FRET Assay Kit sold by ThermoFisher Scientific (Catalog Number P2985), may be used in this assay with the appropriate modifications, which are within the purview of the ability of a person with ordinary skill in the art. Proteolytic cleavage of the FRET substrate released quenching of fluorescence (excitation 488 nm and emission 590 nm).

[2] = target: human recombinant BACE2 (Homo sapiens (Human), UniProt Q9Y5Z0); assay: In vitro enzymatic BACE2 FRET assay; format: biochemical; details: read-out: BACE2 Enzyme IC50
Chain of human recombinant BACE2 (Q9Y5Z0 63-518): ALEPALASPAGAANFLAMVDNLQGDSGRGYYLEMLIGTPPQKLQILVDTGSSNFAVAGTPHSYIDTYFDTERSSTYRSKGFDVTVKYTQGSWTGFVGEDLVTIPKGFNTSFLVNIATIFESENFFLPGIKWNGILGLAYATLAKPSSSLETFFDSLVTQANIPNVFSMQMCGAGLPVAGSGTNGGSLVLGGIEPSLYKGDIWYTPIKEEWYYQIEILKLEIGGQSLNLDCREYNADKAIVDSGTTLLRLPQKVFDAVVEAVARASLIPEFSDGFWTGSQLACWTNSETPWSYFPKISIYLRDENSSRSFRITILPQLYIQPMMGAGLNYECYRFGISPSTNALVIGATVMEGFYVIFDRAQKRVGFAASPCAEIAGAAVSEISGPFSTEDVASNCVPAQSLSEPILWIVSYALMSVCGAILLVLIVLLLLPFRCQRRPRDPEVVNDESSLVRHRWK
Experimental: as §1

[3] = target: Recombinant CatD (Homo sapiens (Human), UniProt P07339); assay: In vitro enzymatic Cathepsin D (CatD) FRET assay; format: biochemical; details: read-out: Cat D Enzyme IC50
Chain of Recombinant CatD (P07339 65-412): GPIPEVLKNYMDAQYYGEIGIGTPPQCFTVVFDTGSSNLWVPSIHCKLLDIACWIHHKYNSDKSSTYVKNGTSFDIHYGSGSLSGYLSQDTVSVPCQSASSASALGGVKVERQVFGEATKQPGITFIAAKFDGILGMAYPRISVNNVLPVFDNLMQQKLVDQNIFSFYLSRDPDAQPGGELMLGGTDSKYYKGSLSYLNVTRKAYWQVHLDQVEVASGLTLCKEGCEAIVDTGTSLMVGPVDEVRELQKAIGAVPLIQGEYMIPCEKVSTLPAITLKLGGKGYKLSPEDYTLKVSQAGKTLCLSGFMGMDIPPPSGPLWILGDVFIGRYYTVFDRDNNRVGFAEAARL
Experimental: In Vitro Enzymatic Cathepsin D (CatD) FRET Assay Recombinant CatD was expressed in CHO cells. The assay buffer for CatD was 0.05 M citrate pH 3.5, 10% DMSO final, 5 mM CHAPS. […] The assays was effectively started by the addition of different FRET substrates (20 nM for CatD) and the combination was incubated for one hour. The FRET assay was terminated with by addition of tris buffer, which raises the pH to neutrality, and the fluorescence was determined. The FRET substrate was a peptide with commercially available fluorophore and quencher, on opposite sides of the CatD cleavage site. The CatD substrate peptide sequence was based on sequence #1 of Table 1 from Gulnik et al., FEBS Lett. 413(2):379-384 (1997). Proteolytic cleavage of the FRET substrate released quenching of fluorescence (CatD excitation 500 nm and emission 580 nm). The in vitro CatD FRET assay data for each of the Examples is provided in Table 2, conducted by the first procedure described above. […] Thus, with this surprising selectivity profile, the compounds provided herein are believed to minimize, reduce or completely eliminate any risk of retinal atrophy and abnormal development of the eye and of the retinal pigmented epithelium as it relates to the normal function and activity of CatD.

[4] = test system: BACE1 (Aβ40 from cells stably expressing Amyloid Precursor Protein); assay: In vitro BACE1 cell-based assay (Aβ40 in conditioned medium, HTRF)
Experimental: In Vitro BACE1 Cell-Based Assay The cell-based assay measures inhibition or reduction of Aβ40 in conditioned medium of test compound treated cells expressing amyloid precursor protein. Cells stably expressing Amyloid Precursor Protein (APP) were plated at a density of 45K cells/well in 384 well plates (Corning/BioCoat 354663). The test compounds were then added to cells in 22-point dose response concentrations with the starting concentration being 62.5 μM. The compounds were diluted from stock solutions in DMSO and the final DMSO concentration of the test compounds on cells was 0.625%. The cells were cultivated overnight at 37° C. and 5% CO2 in DMEM supplemented with 10% FBS. After 24 h of incubation with the test compounds, the conditioned media was collected and the Aβ40 levels were determined using HTRF (Homogeneous Time Resolved Fluorescence). […] The HTRF to detect Aβ40 was performed in 384 well plates (Costar 3658). The antibody pair that were used to detect Aβ 40 from cell supernatants were ConfAb40 antibody (Amgen in-house) and biotinylated 6E10 (BIOLEGEND). As an alternative to ConfAb40, a commercially available antibody, Anti-beta Amyloid 1-40 antibody [BDI350] from Abcam, Cambridge, Mass. 02139-1517 (Product code: ab20068), may be used in this assay. […] The conditioned media was incubated with above antibodies and Streptavidin Allophycocyanin Conjugate for 30-60 minutes at 23° C. The final readout was performed on Envision from PerkinElmer.

[5] = Aβ40, 24 h incubation, read-out: BACE1 Cell IC50
[6] = 24 h, read-out: BACE1 Cell IC50 (μM)

Chain of human recombinant BACE1 (P56817 46-501): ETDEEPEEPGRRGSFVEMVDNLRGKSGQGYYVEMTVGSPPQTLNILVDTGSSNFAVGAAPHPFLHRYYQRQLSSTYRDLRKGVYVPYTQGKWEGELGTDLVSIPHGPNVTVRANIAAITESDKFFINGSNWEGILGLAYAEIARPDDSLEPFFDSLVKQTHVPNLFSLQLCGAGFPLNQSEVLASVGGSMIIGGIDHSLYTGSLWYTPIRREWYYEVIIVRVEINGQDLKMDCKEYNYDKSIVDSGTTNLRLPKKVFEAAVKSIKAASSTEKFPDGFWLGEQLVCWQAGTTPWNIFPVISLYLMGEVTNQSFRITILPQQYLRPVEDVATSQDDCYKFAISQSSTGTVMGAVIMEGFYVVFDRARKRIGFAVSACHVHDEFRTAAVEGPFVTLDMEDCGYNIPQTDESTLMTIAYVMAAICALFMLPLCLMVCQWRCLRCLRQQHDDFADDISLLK

Row | SMILES | IC50 [1] | IC50 [2] | IC50 [3] | IC50 [4, 5] | IC50 [4, 6]
1 | C#CCOc1cnc(/C(F)=C/c2ccc(F)c([C@]34CN(c5ncc(F)cn5)C[C@H]3CSC(N)=N4)c2)cn1 (stereo in doubt) [Example 109, (4aR,7aS)-7a-(2-fluoro-5-((Z)-2-fluoro-2-(5-(prop-2-yn-1-yloxy)pyrazin-2-yl)vinyl)phenyl)-6-(5-fluoropyrimidin-2-yl)-4,4a,5,6,7,7a-hexahydropyrrolo[3,4-d][1,3]thiazin-2-amine] | 0.149 nM | 5.49 nM | 7600 nM | 0.000311 µM | –
2 | C#CCOc1cnc(/C(F)=C/c2ccc(F)c([C@]34CO[C@H](C(F)(F)F)[C@H]3CSC(N)=N4)c2)cn1 [Example 127, (4aS,5S,7aS)-7a-(2-fluoro-5-((Z)-2-fluoro-2-(5-(prop-2-ynyloxy)pyrazin-2-yl)vinyl)phenyl)-5-(trifluoromethyl)-4a,5,7,7a-tetrahydro-4H-furo[3,4-d][1,3]thiazin-2-amine] | 103 nM | 2900 nM | 160000 nM | – | 0.0243 µM
3 | C#CCOc1cnc(/C(F)=C/c2ccc(F)c([C@]34CN(C(=O)OC(C)C)C[C@H]3CSC(N)=N4)c2)cn1 [Example 124, (4aR,7aS)-isopropyl 2-amino-7a-(2-fluoro-5-((Z)-2-fluoro-2-(5-(prop-2-yn-1-yloxy)pyrazin-2-yl)vinyl)phenyl)-4a,5,7,7a-tetrahydropyrrolo[3,4-d][1,3]thiazine-6(4H)-carboxylate] | 2.62 nM | 92.2 nM | 23800 nM | – | 0.00269 µM
4 | N#Cc1ccc(/C(F)=C/c2ccc(F)c([C@]34CO[C@H](C(F)(F)F)[C@H]3COC(N)=N4)c2)nc1 (single isomer, unassigned) [Example 142] | 37.2 nM | 3540 nM | > 400000 nM | 0.0588 µM | –
5 | N#Cc1ccc(/C(F)=C/c2ccc(F)c([C@@]34CO[C@@H](C(F)F)[C@@H]3CSC(N)=N4)c2)nc1 [Example 145, 6-((Z)-2-(3-((4aR,5R,7aR)-2-Amino-5-(difluoromethyl)-4a,5-dihydro-4H-furo[3,4-d][1,3]thiazin-7a(7H)-yl)-4-fluorophenyl)-1-fluorovinyl)nicotinonitrile] | 48.5 nM | 1400 nM | > 400000 nM | 0.041 µM | –
6 | NC1=N[C@]2(c3cc(/C=C(\F)c4ccc(Cl)cn4)ccc3F)CN(c3ncc(F)cn3)C[C@@H]2CS1 [Example 100, (4aS,7aR)-7a-(5-((Z)-2-(5-chloropyridin-2-yl)-2-fluorovinyl)-2-fluorophenyl)-6-(5-fluoropyrimidin-2-yl)-4,4a,5,6,7,7a-hexahydropyrrolo[3,4-d][1,3]thiazin-2-amine] | 847 nM | 495 nM | 544000 nM | – | 1.25 µM
7 | NC1=N[C@@]2(c3cc(/C=C(\F)c4ccc(Cl)cn4)ccc3F)COC[C@H]2CS1 [Example 105, (4aS,7aS)-7a-(5-((Z)-2-(5-chloropyridin-2-yl)-2-fluorovinyl)-2-fluorophenyl)-4a,5,7,7a-tetrahydro-4H-furo[3,4-d][1,3]thiazin-2-amine] | 64.4 nM | 56.9 nM | 181000 nM | 0.129 µM | –
8 | C#CCOc1cnc(/C(F)=C/c2ccc(F)c([C@]34CN(C(=O)CC(F)(F)F)C[C@H]3CSC(N)=N4)c2)cn1 [Example 119, 1-((4aR,7aS)-2-amino-7a-(2-fluoro-5-((Z)-2-fluoro-2-(5-(prop-2-yn-1-yloxy)pyrazin-2-yl)vinyl)phenyl)-4a,5,7,7a-tetrahydropyrrolo[3,4-d][1,3]thiazin-6(4H)-yl)-3,3,3-trifluoropropan-1-one] | 9.45 nM | 510 nM | 105000 nM | 0.0265 µM | –

Further lines, with some results ahead:

Row | IC50 [1] | IC50 [2] | IC50 [3] | IC50 [4, 5] | SMILES | IC50 [4, 6]
9 | 1.56 nM | 85.5 nM | 4500 nM | 0.00411 µM | Cc1noc(COc2cnc(/C(F)=C/c3ccc(F)c([C@]45CN(c6ncc(F)cn6)C[C@H]4CSC(N)=N5)c3)cn2)n1 (stereo in doubt) [Example 110, (4aR,7aS)-7a-(2-fluoro-5-((Z)-2-fluoro-2-(5-((3-methyl-1,2,4-oxadiazol-5-yl)methoxy)pyrazin-2-yl)vinyl)phenyl)-6-(5-fluoropyrimidin-2-yl)-4,4a,5,6,7,7a-hexahydropyrrolo[3,4-d][1,3]thiazin-2-amine] | –
10 | 1220 nM | 28000 nM | 139000 nM | 2 µM | N#Cc1ccc(/C(F)=C/c2ccc(F)c([C@@]34CO[C@@H](CF)[C@@H]3CSC(N)=N4)c2)nc1 [Example 133, 6-((Z)-2-(3-((4aR,5R,7aR)-2-amino-5-(fluoromethyl)-4a,5,7,7a-tetrahydro-4H-furo[3,4-d][1,3]thiazin-7a-yl)-4-fluorophenyl)-1-fluorovinyl)nicotinonitrile] | –
11 | 0.32 nM | 5.18 nM | 19600 nM | 0.000807 µM | N#Cc1cnc(/C(F)=C/c2ccc(F)c([C@]34CN(c5ncc(F)cn5)C[C@H]3CSC(N)=N4)c2)cn1 [Example 111, 5-((Z)-2-(3-((4aR,7aS)-2-amino-6-(5-fluoropyrimidin-2-yl)-4,4a,5,6,7,7a-hexahydropyrrolo[3,4-d][1,3]thiazin-7a-yl)-4-fluorophenyl)-1-fluorovinyl)pyrazine-2-carbonitrile] | –
12 | 0.405 nM | 1.78 nM | 25800 nM | 0.000906 µM | COc1nc(N2C[C@H]3CSC(N)=N[C@@]3(c3cc(/C=C(\F)c4ccc(C#N)cn4)ccc3F)C2)nc(C)c1F [Example 130, 6-((Z)-2-(3-((4aR,7aS)-2-amino-6-(5-fluoro-4-methoxy-6-methylpyrimidin-2-yl)-4,4a,5,6,7,7a-hexahydropyrrolo[3,4-d][1,3]thiazin-7a-yl)-4-fluorophenyl)-1-fluorovinyl)nicotinonitrile] | –
13 | 8.96 nM | 30.6 nM | 38700 nM | 0.00257 µM | COC[C@H](C)Oc1cnc(/C(F)=C/c2ccc(F)c([C@]34CN(c5ncc(F)cn5)C[C@H]3CSC(N)=N4)c2)cn1 [Example 114, (4aR,7aS)-7a-(2-fluoro-5-((Z)-2-fluoro-2-(5-(((S)-1-methoxypropan-2-yl)oxy)pyrazin-2-yl)vinyl)phenyl)-6-(5-fluoropyrimidin-2-yl)-4,4a,5,6,7,7a-hexahydropyrrolo[3,4-d][1,3]thiazin-2-amine] | –
14 | 502 nM | 6390 nM | 815000 nM | 0.985 µM | N#Cc1ccc(/C(F)=C/c2ccc(F)c([C@@]34COC[C@@H]3CSC(N)=N4)c2)nc1 [Example 106, 6-((Z)-2-(3-((4aR,7aR)-2-amino-4a,5,7,7a-tetrahydro-4H-furo[3,4-d][1,3]thiazin-7a-yl)-4-fluorophenyl)-1-fluorovinyl)nicotinonitrile] | –
15 | 2.71 nM | 34 nM | 14800 nM | 0.016 µM | COc1cnc(/C(F)=C/c2ccc(F)c([C@]34CN(c5ncc(F)cn5)C[C@H]3CSC(N)=N4)c2)cn1 [Example 108, (4aR,7aS)-7a-(2-fluoro-5-((Z)-2-fluoro-2-(5-methoxypyrazin-2-yl)vinyl)phenyl)-6-(5-fluoropyrimidin-2-yl)-4,4a,5,6,7,7a-hexahydropyrrolo[3,4-d][1,3]thiazin-2-amine] | –
